From the supplement of paper PMC11061612 come the findings set out here.

Holding throughout (assay): Bliss excess, mean over the matrix (fraction); higher = more synergy
For one test, the system named is 5637 (Bladder Carcinoma). The procedure, abridged:
(§1)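 Cell lines in DMEM/F12 or RPMI with 10% FBS were plated in 1536-well plates, held 24 hours at 37°C, 5% CO2, then given two-drug dose matrices for 72 hours (DMSO typically 0.2%). Viability was read by CellTiter-Glo 2.0 luminescence and scaled as inhibition from 0 (vehicle wells) to 1 (blank wells). Combination Emax is the second-highest inhibition in the matrix; Bliss excess is observed combination effect minus expected EA + EB − EA·EB, EA and EB being single-agent effects.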

In another test the test system is A101D (Melanoma). The procedure, abridged: as §1
The test system of a further test is AU565 (Breast Carcinoma). In outline: as §1
The subject of test [1] is CA46 (Burkitt's Lymphoma). In outline:
as §1

In test [2] the test system is CAL-27 (Oral Cavity Carcinoma). In outline: as §1
A further test concerns COLO-792 (Melanoma). In outline: as §1
Test [3] concerns DMS-53 (Small Cell Lung Carcinoma). In outline: as §1
In test [4] the test system is DU-4475 (Breast Carcinoma). The procedure, abridged:
as §1

In test [5] the test system is ESO26 (Esophageal Adenocarcinoma). In outline:
as §1

Another test has as its system EW-16 (Ewing's Sarcoma). The procedure, abridged: as §1
Test [6] has as its system GA-10 (Burkitt's Lymphoma). The procedure, abridged: as §1
Test [7] deals with HCC1428 (Breast Carcinoma). The procedure, abridged:
as §1

In test [8] the test system is HT55 (Colorectal Carcinoma). The procedure, abridged:
as §1

Test [9] relates to JIMT-1 (Breast Carcinoma). The procedure, abridged: as §1
The test system of test [10] is Jurkat (T-Lymphoblastic Leukemia). In outline: as §1
In a further test the test system is KP-N-YN (Neuroblastoma). In outline:
as §1

For test [11], the system named is NCI-H2228 (Lung Adenocarcinoma). In outline: as §1
Test [12] relates to NCI-H716 (Colorectal Carcinoma). In outline:
as §1

Test [13] deals with OACp4C (Esophageal Adenocarcinoma). In outline:
as §1

The subject of the next test is RH-41 (Rhabdomyosarcoma). The procedure, abridged: as §1

As for `CN(CCO)CC[C@H](CSc1ccccc1)Nc1ccc(S(=O)(=O)NC(=O)c2ccc(N3CCC([C@@H](O)c4ccccc4-c4ccc(Cl)cc4)CC3)cc2)cc1S(=O)(=O)C(F)(F)F` [AZD4320] + Cc1cc2ncnn2cc1Nc1ncc2c(n1)n(C1CCOCC1)c(=O)n2C [AZD7648] (first compound max 1 µM, 7x7, partner max 10 µM), the Bliss excess in the test on 5637 (Bladder Carcinoma) was -0.0359; with A101D (Melanoma), -0.0275; in the test with AU565 (Breast Carcinoma), -0.0132; in test [1] it was -0.0061; in test [2], -0.0355; with COLO-792 (Melanoma) it was 0.0951. In addition, the Bliss excess was 0.0475 in test [3]; 0.0627 in test [4]; -0.0208 in [5]; -0.0475 in the test on EW-16 (Ewing's Sarcoma); -0.0669 in test [6]; 0.025 in test [7]. In addition, the Bliss excess is -0.0404 in test [8]; -0.0513 in test [9]; 0.0134 in test [10]; -0.0238 with KP-N-YN (Neuroblastoma); -0.0231 in test [11]; -0.0253 in [12]. For the same molecule, the Bliss excess was determined as 0.0447 in [13] and 0.0309 in the test with RH-41 (Rhabdomyosarcoma).

Consider `CN(CCO)CC[C@H](CSc1ccccc1)Nc1ccc(S(=O)(=O)NC(=O)c2ccc(N3CCC([C@@H](O)c4ccccc4-c4ccc(Cl)cc4)CC3)cc2)cc1S(=O)(=O)C(F)(F)F` [AZD4320] + Cn1cnc2c(F)c(Nc3ccc(Br)cc3Cl)c(C(=O)NOCCO)cc21 [Selumetinib] (first compound max 1 µM, 7x7, partner max 3 µM), for which the Bliss excess in the test on 5637 (Bladder Carcinoma) is -0.0332; in the test on A101D (Melanoma) it was -0.0099; with AU565 (Breast Carcinoma), 0.0474; in test [1], -0.0435; in test [2] it was 0.0321; with COLO-792 (Melanoma), 0.0279. Further, the Bliss excess in test [3] is 0.0964; in [4] it was 0.0444; in [5], 0.0111; in the test with EW-16 (Ewing's Sarcoma), 0.076; in test [6], -0.0143; in test [7], 0.0011. Besides, the Bliss excess in test [8] is 0.0074; in test [9], 0.0367; in [10], 0.0229; with KP-N-YN (Neuroblastoma) it was 0.0076; in test [11], 0.0075; in test [13] it was 0.0737. In addition, the Bliss excess with RH-41 (Rhabdomyosarcoma) was determined as 0.0087.

Turning to `COc1nnc2ccc(N3CCC(c4ccc(OCCN5CCN(C)C(=O)[C@H]5C)cc4)CC3)nn12` [AZD5153] + CN(CC[C@H](CSC1=CC=CC=C1)NC2=C(C=C(C=C2)S(=O)(=O)NC(=O)C3=CC=C(C=C3)N4CCC(CC4)[C@H](C5=CC=CC=C5C6=CC=C(C=C6)Cl)O)S(=O)(=O)C(F)(F)F)CCO [AZD4320] (first compound max 1 µM, 7x7, partner max 1 µM), the Bliss excess in the test with 5637 (Bladder Carcinoma) was 0.122; in the test on A101D (Melanoma), 0.0648; with AU565 (Breast Carcinoma), 0.0811; in [1] it was -0.0053; in test [2], 0.0151; in the test with COLO-792 (Melanoma) it was 0.0427. Also, the Bliss excess in test [3] is -0.0168; in test [4], 0.0779; in test [5] it was 0.0233; in the test with EW-16 (Ewing's Sarcoma), 0.0851; in [6] it was -0.0394; in [7], 0.0114. Moreover, the Bliss excess in test [8] is -0.0021; in test [9] it was 0.0486; in test [10] it was 0.041; in [11], 0.0351; in [12], -0.0394; in test [13], -0.0404. Moreover, in the test with RH-41 (Rhabdomyosarcoma), the Bliss excess amounted to 0.0427.

Turning to `Cc1cc2ncnn2cc1Nc1ncc2c(n1)n(C1CCOCC1)c(=O)n2C` [AZD7648] + COc1cc([C@@H]2c3cc4c(cc3[C@@H](O[C@@H]3O[C@@H]5CO[C@@H](C)O[C@H]5[C@H](O)[C@H]3O)[C@H]3COC(=O)[C@H]23)OCO4)cc(OC)c1O [Etoposide] (first compound max 10 µM, 7x7, partner max 10 µM), the Bliss excess with KP-N-YN (Neuroblastoma) is 0.0446.

`CC(=O)c1c(C)c2cnc(Nc3ccc(N4CCNCC4)cn3)nc2n(C2CCCC2)c1=O` [Palbociclib] + CN(CC[C@H](CSC1=CC=CC=C1)NC2=C(C=C(C=C2)S(=O)(=O)NC(=O)C3=CC=C(C=C3)N4CCC(CC4)[C@H](C5=CC=CC=C5C6=CC=C(C=C6)Cl)O)S(=O)(=O)C(F)(F)F)CCO [AZD4320] (first compound max 10 µM, 7x7, partner max 1 µM): the Bliss excess was -0.0373 with 5637 (Bladder Carcinoma); 0.0351 with A101D (Melanoma); -0.0375 with AU565 (Breast Carcinoma); -0.0474 in test [1]; -0.0667 in [2]; -0.0863 in the test on COLO-792 (Melanoma). The Bliss excess was 0.038 in test [3]; 0.0318 in test [4]; -0.0562 in test [5]; -0.127 in the test on EW-16 (Ewing's Sarcoma); -0.0385 in [6]; -0.082 in [7]. Moreover, the Bliss excess in test [8] is -0.043; in [9], -0.0507; in test [10], -0.0316; in test [11], -0.0627; in [12], -0.0417; in test [13] it was -0.144. Further, the Bliss excess in the test on RH-41 (Rhabdomyosarcoma) is 0.0142.

For `N#Cc1cnc(Nc2cc(NC[C@H]3CNCCO3)c(C(F)(F)F)cn2)cn1` [SRA737] + C=CCn1c(=O)c2cnc(Nc3ccc(N4CCN(C)CC4)cc3)nc2n1-c1cccc(C(C)(C)O)n1 [AZD1775] (first compound max 10 µM, partner max 1 µM), the Bliss excess in the test on KP-N-YN (Neuroblastoma) stood at 0.0762.

As to `N#Cc1cnc(Nc2cc(NC[C@H]3CNCCO3)c(C(F)(F)F)cn2)cn1` [SRA737] + CCc1c2c(nc3ccc(O)cc13)-c1cc3c(c(=O)n1C2)COC(=O)[C@]3(O)CC [SN-38] (first compound max 10 µM, 7x7, partner max 0.3 µM), in the test on KP-N-YN (Neuroblastoma), the Bliss excess was -0.0189.

As for `N#Cc1cnc(Nc2cc(NC[C@H]3CNCCO3)c(C(F)(F)F)cn2)cn1` [SRA737] + O=c1[nH]cc(F)c(=O)[nH]1 [5-Fluorouracil] (first compound max 10 µM, 7x7, partner max 20 µM), in the test with KP-N-YN (Neuroblastoma), the Bliss excess is -0.0468.

For `C[C@@H](c1ccc2nccn2c1)n1nnc2ncc(-c3cnn(C)c3)nc21` [Savolitinib] + CN(CC[C@H](CSC1=CC=CC=C1)NC2=C(C=C(C=C2)S(=O)(=O)NC(=O)C3=CC=C(C=C3)N4CCC(CC4)[C@H](C5=CC=CC=C5C6=CC=C(C=C6)Cl)O)S(=O)(=O)C(F)(F)F)CCO [AZD4320] (first compound max 1 µM, 7x7, partner max 1 µM), the Bliss excess in the test on 5637 (Bladder Carcinoma) is -0.057; in the test with A101D (Melanoma), -0.0202; with AU565 (Breast Carcinoma), 0.0022; in test [1], -0.0488; in test [2] it was -0.0514; with COLO-792 (Melanoma) it was 0.0139. Also, the Bliss excess in test [3] was -0.036; in test [4] it was -0.0352; in [5] it was -0.0467; in the test on EW-16 (Ewing's Sarcoma), -0.0994; in test [6] it was -0.0196; in test [7] it was -0.0206. The Bliss excess in [8] was -0.0439; in test [9], -0.0427; in test [10] it was -0.0638; in [11], -0.0527; in test [12], -0.0422; in test [13], -0.0291. Further, in the test with RH-41 (Rhabdomyosarcoma), the Bliss excess is -0.0093.
